The source of these data is PMC9283751 (Clinical and Translational Science, 2022).

Where two headings read alike, the source gives them in different places. A value given as a limit tells only on which side of the number the result lay.

For orientation: AUC(0-inf) means total exposure, with the tail of the curve extrapolated. High values mean high exposure, low ones low exposure. Broadly, the Cmax is the maximum level reached in the sampled fluid or tissue. Broadly, the Tmax is the time from dosing to the highest level. Broadly, the AUC(0-t) is the area under the concentration-time curve up to a stated or last time point.

For series [1] the following is noted: cited from earlier work.
The format of series [2] is in vivo, human.
The format of series [3] is in vivo, human. This is another data set of the same source.
For series [4] the following is noted: cited from earlier work. The source holds these as a separate data set.
The conditions of series [5]: with diltiazem; cited from earlier work.
For series [6] the following is noted: reference group of healthy subjects, abbreviated dosing schedule; cited from earlier work.
Series [7] in a line: Calcineurin inhibitor trough levels in transplant recipients. The note with it: mean [SD]. In kind it is in vivo, human.
The mark [8] stands for this setting: transplant recipients on tacrolimus, reference healthy subjects on apixaban + tacrolimus.
The mark [9] stands for this setting: transplant recipients on cyclosporine compared to healthy subjects on apixaban alone.
Setting [10] is: transplant recipients on cyclosporine, reference healthy subjects on apixaban + cyclosporine.

Regarding `COc1ccc(-n2nc(C(N)=O)c3c2C(=O)N(c2ccc(N4CCCCC4=O)cc2)CC3)cc1` [apixaban], the “apixaban dose removed by the kidneys” value in series [1] is recorded as 27%. For the same compound, the “increase in plasma concentrations and total body exposures” value in series [2] (SOTRs on calcineurin inhibitors compared to healthy subjects on apixaban alone) fell in the range of 2 to 3 fold. For the same compound, in series [2] (human, plasma, oral, 10 mg), the area under the curve AUC(0-inf) came out at 5.21 µg·h/mL, the Cmax was found to be 0.327 µg/mL and the Tmax worked out at 1.4 h. In series [2] (human, plasma, po, 10 mg), this compound displayed an area under the curve AUC(0-inf) of 4.31 µg·h/mL, an AUC(0-t) of 4.24 µg·h/mL and a peak concentration (Cmax) of 0.353 µg/mL. Moreover, the peak level in series [2] (one participant (kidney 1) on tacrolimus) is more than 500 ng/mL. Besides, the “mean AUCs higher than the healthy participants” value in series [2] (tacrolimus group, patients with optimal renal function) came out at 1.8 fold. For the same compound, the time of peak concentration (Tmax) in series [2] (tacrolimus transplant cohort, comparison group to patients that weighed <60 kg) came out at 2.6 h. Also, in series [2] (tacrolimus transplant cohort, patients that weighed <60 kg), the “mean Cmax” value amounted to 0.483 µg/mL. Besides, the “apixaban CL/F” value in series [2] (tacrolimus transplant cohort, patients with creatinine levels of greater than 133 μmol/L) came out at 1.9 L/h. Moreover, the “GMR for apixaban AUC0-inf” value in series [2] (transplant recipients on tacrolimus compared to healthy subjects on apixaban alone) is on record as 224%. Also, in series [2] (setting [8]), the “GMR for apixaban AUC0-inf” value amounted to 285% and the “GMR for apixaban AUC0-tlast” value is 309%. In series [3] (human, plasma, po, 10 mg), the AUC(0-inf) came to 5.39 µg·h/mL and the area under the curve AUC(0-t) stood at 4.99 µg·h/mL. In series [3] (setting [9]), the “GMR for apixaban AUC0-inf” value is given as 280% and the “GMR for apixaban Cmax” value is on record as 256%. In series [3] (setting [10]), the “GMR for apixaban AUC0-inf” value was 229% and the “GMR for apixaban Cmax” value is reported as 179%. In addition, in series [4], the solubility classification result was “high solubility”. In series [5], the “increase in apixaban AUC” value is reported as 1.4 fold and the “increase in apixaban Cmax” value is 1.3 fold.
Consider `C=CC[C@@H]1/C=C(\C)C[C@H](C)C[C@H](OC)[C@H]2O[C@@](O)(C(=O)C(=O)N3CCCC[C@H]3C(=O)O[C@H](/C(C)=C/[C@@H]3CC[C@@H](O)[C@H](OC)C3)[C@H](C)[C@@H](O)CC1=O)[C@H](C)C[C@@H]2OC` [tacrolimus], for which the trough level in series [6] is recorded as 3.8 (2.3) ng/ml. In addition, the mean trough level is 8.0 [2.7] ng/ml in series [7] (after apixaban administration) and 7.4 (1.5) ng/ml in series [7] (before apixaban administration (steady-state)).
